In US20250042882A1, “CERTAIN 3-AZABICYCLO[3.1.0]HEXANES AS GLP-1 RECEPTOR MODULATORS” (AstraZeneca AB, priority 2021, published 2025):
pEC50: −log10 of the molar value.

Key:
human GLP-1R receptor = molecular target: T1, human GLP-1R receptor (Homo sapiens, UniProt P43220, L260F); assay: CHOK1 GLP-1R cAMP Assay; format: cell-based; details: CHO-K1 cell line stably expressing human GLP-1R (Leu260Phe variant); HTRF cAMP; agonist activity
T1 construct: expressed in transfected cells; host or cells: CHO-K1 (ATCC CCL-61)
T1 sequence (P43220 24-463 L260F): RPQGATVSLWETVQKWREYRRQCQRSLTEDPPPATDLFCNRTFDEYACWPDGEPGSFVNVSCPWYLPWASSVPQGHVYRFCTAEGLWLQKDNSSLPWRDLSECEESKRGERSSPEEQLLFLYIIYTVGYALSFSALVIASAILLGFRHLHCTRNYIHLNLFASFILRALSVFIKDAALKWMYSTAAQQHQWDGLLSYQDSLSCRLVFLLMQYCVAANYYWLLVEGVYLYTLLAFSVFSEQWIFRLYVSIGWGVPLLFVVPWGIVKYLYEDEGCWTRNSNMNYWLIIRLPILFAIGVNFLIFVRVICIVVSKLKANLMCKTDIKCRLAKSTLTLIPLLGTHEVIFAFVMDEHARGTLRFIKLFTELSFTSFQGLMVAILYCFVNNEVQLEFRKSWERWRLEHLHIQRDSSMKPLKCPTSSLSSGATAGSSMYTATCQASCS
Procedure: A cell line stably expressing the human GLP-1R receptor (NM_002062.5, including the naturally-occurring variant Leu260Phe) in a CHO-K1 (ATCC® CCL-61™) was used for assay.
GLP-1 receptor mediated agonist activity was determined in a cell-based assay measuring cyclic adenosine monophosphate (cAMP) levels in cells using Homogeneous Time-Resolved Fluorescence (HTRF) cAMP detection kit (CisBio catalog #62AM4PEC, cAMP Gs Dynamic range kit). The cAMP detection method is based on a competitive immunoassay, in which cAMP produced by the cells and cAMP labeled with the dye d2 compete for binding to a Europium-Cryptate-labeled anti-cAMP antibody. The specific HTRF signal is inversely proportional to the concentration of cAMP.
Compounds were added to individual well in 384 well-assay plates (Greiner #784076) using an Echo (LabCyte) dispenser from 10 mM stocks. Varying concentration of compounds were added to wells, and DMSO was used to normalize each well to a volume of 100 nL. A dose response curve of GLP-1(7-36)NH2 (Bachem H-6795) was included in each run. 5 μL of cAMP concentration response standards are applied in specified wells in the assay plates. Cryo-preserved cells are thawed and resuspended in assay buffer pre-heated to 37° C. (20 mM HEPES pH 7.4, 1× Hank's Balanced Salt Solution (HBSS, Life Technologies #14065) supplemented with 0.1% (w/v) bovine serum albumin (Sigma, A-7030). Cells were centrifuged at 250*g for 5 min at rt, and resuspended in room tempered assay buffer to a final density of 0.16*10^6 cell/mL, to deliver 800 cells/well. 5 μL of assay buffer with 1 mM 3-isobutyl-1-methylxanthin (IBMX; Sigma cat I-7018) was dispensed per well in assay plates using a multidrop combi (Thermo Scientific) subsequently 5 μL of cell suspension was distributed to relevant wells in the assay using a multidrop dispenser. Assay plates were incubated 20 min at rt.
Detection reagents, Europium-Cryptate-labeled anti-cAMP antibody and cAMP labeled with the dye d2, are diluted in lysis buffer, provided by the manufacturer. 5 μL of each detection reagent is supplemented to each assay well using a multidrop dispenser. Assay plates are incubated in the dark for at least one h. The HTRF signal is measured using the HTRF module (excitation: 337 nm, emission A: 665 nm and emission B: 620 nm) in Pherastar FSX (BMG Labtech).
Raw data were converted to pM cAMP using the cAMP standard curve included in each run.
Converted data were further analyzed in Genedata Screener (Genedata) and EC50 determinations were made from agonist dose-response curves analyzed with a curve fitting program using a 4-parameter logistic dose response equation (Equation y=A+((B−A)/1+((C/x)^D))) where A is no stimulation, B is full stimulation, C is the EC50 and D is the Hill slope). The percent effect was determined relative to a saturating concentration of a full GLP-1R agonist (GLP-1(7-36)NH2 has 100% effect in this assay setup).

GLP-1R = molecular target: T2, GLP-1R (Homo sapiens, UniProt P43220); assay: EndoC cAMP Accumulation Assay; format: cell-based; details: EndoC-βH1 human pancreatic β cell line; HTRF cAMP accumulation
T2 construct: host or cells: EndoC-βH1 human pancreatic beta cell line
T2 sequence (P43220 24-463): as the sequence (P43220 24-463 L260F) above, with F237L counted along it
Source text: EndoC cAMP Accumulation Assay
A HTRF cAMP assay (cAMP Gs dynamic kit; CisoBio Cat #62AM4PEJ) was used to identify agonists of GLP-1R in a pancreatic insulinoma cell line (EndoC-⊕H1). […] EndoC-PHlcells have detectable GLP-1R messenger ribonucleic acid (mRNA) as detected by quantitative polymerase chain reaction (qPCR). […] The EndoC-PH1 cell line is a valid model of human beta cells and applicable for screenings to identify novel drug target candidates (Mol. Metab., 2018, 8, 144-157). CisBio HTRF cAMP kits are based on a competitive immunoassay using cryptate-labelled anti-cAMP antibody and d2-labeled cAMP. The detection kit is intended for the direct quantitative determination of cAMP. The specific signal (i.e. energy transfer) is inversely proportional to the concentration of cAMP in the standard or sample. Test compounds (10 mM in DMSO) were diluted into assay buffer (HBSS (Sigma #H8264) supplemented with 25 mM HEPES (Gibco #15630, pH 7.4), 0.1% BSA (Sigma #A3059) and 0.5 mM IBMX (Sigma #I7018) included fresh on the day of the assay) into 96 well U-bottom plates (Greiner #650201). Diluted compounds were transferred to ECHO source polypropylene plates (Labcyte #P-05525) and dose response curves were dispensed acoustically using ECHO 550 into black shallow-well u-bottom 384-well HTRF Assay Plates (Corning 4514).
Cryovials of EndoC-H1 (supplied at 1×10e^7 cells/vial) were used directly for screening. The cryovials and were removed from N2(l) and thawed rapidly in a 37° C. water bath. The cells were resuspended in assay buffer and centrifuged at 300 g for 5 min. Cells were resuspended in assay buffer at the appropriate concentration, typically at 12e5 cells per mL (3000 cells per well, dependent on cell batch) and 2.5 μL diluted cells were added to all wells of destination plate by Multidrop combi reagent dispenser (Thermofisher). The plates were incubated at rt for 30 min. The assay was stopped by adding 2.5 μL anti-cAMP cryptate solution to all wells and 2.5 μL cAMP-d2 solution (both diluted 1:20 in lysis buffer) to columns 1-22 by Combi drop. A volume of 2.5 μL cAMP-d2 solution was added to wells E23 to P24 and 2.5 μL lysis buffer added to wells A23 to D24 by multichannel pipette. The plates were incubated at rt for 1 h and read on an Envision plate reader using excitation wavelength of 320 mn and emission of 590 nm and 660 nm.
Raw data from Envision is converted to % DeltaF according to the manufacturer's instructions. Dose response curves are analysed via 4-Parameter Logistical Analysis and assay plate Z′ values obtained. Samples are graphed as percentage (%) activation plots compared to GIP (1-42, Bachem H-5645) with assay window defined by negative control as basal cell cAMP levels and positive control are defined by maximum GIP (82.5 nM) signal. GLP-1 (7-36 amide, Bachem H-6795) dose response curve was included on all plates.

Compound	pEC50 (human GLP-1R receptor)	pEC50 (GLP-1R)
2-(((1R,5S,6R)-6-((R*)-2-(5-Chloropyridin-2-yl)-5-fluoro-2-methylbenzo[d][1,3]dioxol-4-yl)-3-azabicyclo[3.1.0]hexan-3-yl)methyl)-4-fluoro-1-(((S)-oxetan-2-yl)methyl)-1H-benzo[d]imidazole-6-carboxylic acid [Example 10b]	6.17	5.72
4-Chloro-2-(((1R,5S,6R)-6-((R*)-2-(5-chloropyridin-2-yl)-5-fluoro-2-methylbenzo[d][1,3]dioxol-4-yl)-3-azabicyclo[3.1.0]hexan-3-yl)methyl)-1-(((S)-oxetan-2-yl)methyl)-1H-benzo[d]imidazole-6-carboxylic acid [Example 8a]	6.82	6.55
4-Chloro-2-(((1R,5S,6R)-6-((R*)-2-(5-chloropyridin-2-yl)-5-fluoro-2-methylbenzo[d][1,3]dioxol-4-yl)-3-azabicyclo[3.1.0]hexan-3-yl)methyl)-1-(((S)-oxetan-2-yl)methyl)-1H-benzo[d]imidazole-6-carboxylic acid [Example 8b]	8.09	8.02
C[C@@]1(c2ccc(Cl)cn2)Oc2cccc([C@H]3[C@@H]4CN(Cc5nc6c(Cl)cc(C(=O)O)cc6n5CC5CCO5)C[C@@H]43)c2O1 (relative stereo) [Example 5, 4-Chloro-2-(((1R,5S,6R)-6-((R*)-2-(5-chloropyridin-2-yl)-2-methylbenzo[d][1,3]dioxol-4-yl)-3-azabicyclo[3.1.0]hexan-3-yl)methyl)-1-(((S)-oxetan-2-yl)methyl)-1H-benzo[d]imidazole-6-carboxylic acid]	7.62	7.80
C[C@@]1(c2ccc(Cl)cn2)Oc2cccc([C@H]3[C@@H]4CN(Cc5nc6c(F)cc(C(=O)O)cc6n5C[C@@H]5CCO5)C[C@@H]43)c2O1 (relative stereo) [Example 9, 2-(((1R,5S,6R)-6-((R*)-2-(5-Chloropyridin-2-yl)-2-methylbenzo[d][1,3]dioxol-4-yl)-3-azabicyclo[3.1.0]hexan-3-yl)methyl)-4-fluoro-1-(((S)-oxetan-2-yl)methyl)-1H-benzo[d]imidazole-6-carboxylic acid]	7.40	7.24
C[C@@]1(c2ccc(C#N)cc2F)Oc2cccc([C@H]3[C@@H]4CN(Cc5nc6c(F)cc(C(=O)O)cc6n5C[C@@H]5CCO5)C[C@@H]43)c2O1 (relative stereo) [Example 11, 2-((1R,5S,6R)-6-((R*)-2-(4-Cyano-2-fluorophenyl)-2-methylbenzo[d][1,3]dioxol-4-yl)-3-azabicyclo[3.1.0]hexan-3-yl)methyl)-4-fluoro-1-(((S)-oxetan-2-yl)methyl)-1H-benzo[d]imidazole-6-carboxylic acid]	7.21	7.24
CCn1cncc1Cn1c(CN2C[C@@H]3[C@H](C2)[C@H]3c2cccc3c2O[C@](C)(c2ccc(Cl)cn2)O3)nc2c(OC)cc(C(=O)O)cc21 (relative stereo) [Example 13, 2-((1R,5S,6s)-6-(R*)-2-(5-Chloropyridin-2-yl)-2-methylbenzo[d][1,3]dioxol-4-yl)-3-azabicyclo[3.1.0]hexan-3-yl)methyl)-1-((1-ethyl-1H-imidazol-5-yl)methyl)-4-methoxy-1H-benzo[d]imidazole-6-carboxylic acid]	8.09	8.39
CCn1cncc1Cn1c(CN2C[C@@H]3[C@H](C2)[C@H]3c2cccc3c2O[C@](C)(c2ccc(Cl)cn2)O3)nc2c(F)cc(C(=O)O)cc21 (relative stereo) [Example 14, 2-((1R,5S,6s)-6-(R*)-2-(5-Chloropyridin-2-yl)-2-methylbenzo[d][1,3]dioxol-4-yl)-3-azabicyclo[3.1.0]hexan-3-yl)methyl)-1-((1-ethyl-1H-imidazol-5-yl)methyl)-4-fluoro-1H-benzo[d]imidazole-6-carboxylic acid]	7.59	8.23
CCn1cncc1Cn1c(CN2C[C@@H]3[C@H](C2)[C@H]3c2cccc3c2O[C@](C)(c2ccc(Cl)cc2F)O3)nc2c(F)cc(C(=O)O)cc21 (relative stereo) [Example 15, 2-((1R,5S,6s)-6-((R*)-2-(4-Chloro-2-fluorophenyl)-2-methylbenzo[d][1,3]dioxol-4-yl)-3-azabicyclo[3.1.0]hexan-3-yl)methyl)-1-((1-ethyl-1H-imidazol-5-yl)methyl)-4-fluoro-1H-benzo[d]imidazole-6-carboxylic acid]	8.07	8.52
COc1cc(C(=O)O)cc2c1nc(CN1C[C@@H]3[C@H](C1)[C@H]3c1cccc3c1O[C@](C)(c1ccc(Cl)cn1)O3)n2CC1CCO1 (single isomer, unassigned) [Example 4a, 2-(((1R,5S,6R)-6-((R*)-2-(5-Chloropyridin-2-yl)-2-methylbenzo[d][1,3]dioxol-4-yl)-3-azabicyclo[3.1.0]hexan-3-yl)methyl)-4-methoxy-1-(((S)-oxetan-2-yl)methyl)-1H-benzo[d]imidazole-6-carboxylic acid]	6.55	6.46
COc1cc(C(=O)O)cc2c1nc(CN1C[C@@H]3[C@H](C1)[C@H]3c1cccc3c1O[C@](C)(c1ccc(Cl)cn1)O3)n2CC1CCO1 (single isomer, unassigned) [Example 4b, 2-(((1R,5S6R)-6-((R*)-2-(5-Chloropyridin-2-yl)-2-methylbenzo[d][1,3]dioxol-4-yl)-3-azabicyclo[3.1.0]hexan-3-yl)methyl)-4-methoxy-1-(((S)-oxetan-2-yl)methyl)-1H-benzo[d]imidazole-6-carboxylic acid]	7.21	7.85
